In brackets after ≈: the same amount, converted by molar mass. Activity calls are given as the source filed them. No cut-off for these calls is given here.
Assays:
[1] = target: T1, Serine/threonine-protein kinase pim-1 (Homo sapiens, UniProt P11309); assay: Inhibition of human PIM1 using FITC-(AHX)RSRHSSYPAGT-COOH as substrate after 90 mins by mobility shift assay in presence of 50 uM ATP
Target sequence in this assay (P11309 whole entry): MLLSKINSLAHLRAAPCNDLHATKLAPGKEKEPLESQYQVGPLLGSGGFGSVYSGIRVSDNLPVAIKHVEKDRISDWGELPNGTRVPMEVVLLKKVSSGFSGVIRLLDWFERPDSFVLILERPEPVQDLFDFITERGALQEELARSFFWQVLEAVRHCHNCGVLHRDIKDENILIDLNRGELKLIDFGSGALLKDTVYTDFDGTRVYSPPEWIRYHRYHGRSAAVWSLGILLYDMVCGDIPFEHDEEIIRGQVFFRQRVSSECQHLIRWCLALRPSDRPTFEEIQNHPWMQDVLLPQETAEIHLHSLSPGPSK

[2] = target: T2, Serine/threonine-protein kinase pim-3 (Homo sapiens, UniProt Q86V86); assay: Inhibition of human PIM3 using FITC-(AHX)RSRHSSYPAGT-COOH as substrate after 90 mins by mobility shift assay in presence of 50 uM ATP
[3] = target: T3, Serine/threonine-protein kinase pim-2 (Homo sapiens, UniProt Q9P1W9); assay: Inhibition of human PIM2 using FITC-(AHX)RSRHSSYPAGT-COOH as substrate after 90 mins by mobility shift assay in presence of 50 uM ATP
Target sequence in this assay (Q9P1W9 whole entry): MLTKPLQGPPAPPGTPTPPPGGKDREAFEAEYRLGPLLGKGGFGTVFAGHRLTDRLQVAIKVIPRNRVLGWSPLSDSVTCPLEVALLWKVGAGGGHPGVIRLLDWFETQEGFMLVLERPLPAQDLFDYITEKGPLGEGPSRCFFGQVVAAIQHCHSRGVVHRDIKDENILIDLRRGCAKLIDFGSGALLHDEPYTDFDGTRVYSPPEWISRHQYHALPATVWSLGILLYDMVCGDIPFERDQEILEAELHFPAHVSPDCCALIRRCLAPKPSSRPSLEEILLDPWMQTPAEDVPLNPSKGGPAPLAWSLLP

[4] = target: T2, Serine/threonine-protein kinase pim-3; assay: Inhibition of human PIM3 using FITC-(AHX)RSRHSSYPAGT-COOH as substrate after 90 mins by mobility shift assay in presence of 5 mM ATP
[5] = Equilibrium solubility of the compound in phosphate buffer after 24 hrs at pH 7.4; type: physicochemical
[6] = Antiproliferative activity against human MOLM16 cells after 72 hrs by Cell Titer-Blue assay; type: functional; details: MOLM16, 72 h
[7] = target: Voltage-gated inwardly rectifying potassium channel KCNH2 (Homo sapiens, UniProt Q12809); assay: Inhibition of human ERG
Chain of Voltage-gated inwardly rectifying potassium channel KCNH2 (Q12809 whole entry): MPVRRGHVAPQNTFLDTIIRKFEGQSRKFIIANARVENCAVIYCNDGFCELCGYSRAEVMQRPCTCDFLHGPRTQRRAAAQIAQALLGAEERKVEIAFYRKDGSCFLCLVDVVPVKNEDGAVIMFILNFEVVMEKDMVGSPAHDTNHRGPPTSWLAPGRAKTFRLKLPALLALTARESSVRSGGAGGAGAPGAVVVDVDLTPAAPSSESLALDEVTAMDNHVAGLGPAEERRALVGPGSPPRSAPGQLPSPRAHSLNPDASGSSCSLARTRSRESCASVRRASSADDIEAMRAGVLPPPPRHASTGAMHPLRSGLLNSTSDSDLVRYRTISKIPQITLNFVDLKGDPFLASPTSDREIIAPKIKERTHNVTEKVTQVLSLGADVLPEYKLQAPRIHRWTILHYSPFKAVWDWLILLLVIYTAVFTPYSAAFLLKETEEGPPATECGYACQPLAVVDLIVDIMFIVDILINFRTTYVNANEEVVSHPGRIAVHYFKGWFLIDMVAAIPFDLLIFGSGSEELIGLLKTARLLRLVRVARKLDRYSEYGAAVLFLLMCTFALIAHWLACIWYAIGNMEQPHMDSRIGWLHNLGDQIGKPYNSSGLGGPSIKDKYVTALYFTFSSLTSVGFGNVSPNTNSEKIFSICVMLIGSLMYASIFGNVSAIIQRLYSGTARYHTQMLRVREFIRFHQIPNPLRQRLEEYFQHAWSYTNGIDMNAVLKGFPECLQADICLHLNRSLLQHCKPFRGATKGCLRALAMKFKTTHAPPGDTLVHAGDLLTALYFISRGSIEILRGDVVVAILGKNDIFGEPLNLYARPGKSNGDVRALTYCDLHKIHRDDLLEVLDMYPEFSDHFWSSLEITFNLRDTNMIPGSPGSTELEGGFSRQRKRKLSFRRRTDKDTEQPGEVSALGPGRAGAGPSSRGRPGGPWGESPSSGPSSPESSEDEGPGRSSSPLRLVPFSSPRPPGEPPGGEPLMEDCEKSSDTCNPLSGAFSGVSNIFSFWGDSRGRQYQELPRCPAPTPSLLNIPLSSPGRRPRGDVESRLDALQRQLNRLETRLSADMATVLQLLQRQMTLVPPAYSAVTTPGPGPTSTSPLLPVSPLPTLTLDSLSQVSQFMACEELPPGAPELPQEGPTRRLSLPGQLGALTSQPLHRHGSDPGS

[8] = target: T3, Serine/threonine-protein kinase pim-2; assay: Inhibition of human PIM2 using FITC-(AHX)RSRHSSYPAGT-COOH as substrate after 90 mins by mobility shift assay in presence of 5 mM ATP
Target sequence in this assay (Q9P1W9 whole entry): as the sequence (Q9P1W9 whole entry) above

[9] = target: T1, Serine/threonine-protein kinase pim-1; assay: Inhibition of human PIM1 using FITC-(AHX)RSRHSSYPAGT-COOH as substrate after 90 mins by mobility shift assay in presence of 5 mM ATP
Target sequence in this assay (P11309 whole entry): as the sequence (P11309 whole entry) above

[10] = in vitro; details: rat, liver microsomes
[11] = target: T3, Serine/threonine-protein kinase pim-2; details: 1 uM
Target sequence in this assay (Q9P1W9 whole entry, looked up): as the sequence (Q9P1W9 whole entry) above

[12] = target: Phosphatidylinositol 4,5-bisphosphate 3-kinase catalytic subunit gamma isoform (Homo sapiens) (UniProt P48736); assay: Inhibition of PI3Kgamma at 1 uM
Chain of Phosphatidylinositol 4,5-bisphosphate 3-kinase catalytic subunit gamma isoform (Homo sapiens) (P48736 whole entry, looked up, canonical isoform): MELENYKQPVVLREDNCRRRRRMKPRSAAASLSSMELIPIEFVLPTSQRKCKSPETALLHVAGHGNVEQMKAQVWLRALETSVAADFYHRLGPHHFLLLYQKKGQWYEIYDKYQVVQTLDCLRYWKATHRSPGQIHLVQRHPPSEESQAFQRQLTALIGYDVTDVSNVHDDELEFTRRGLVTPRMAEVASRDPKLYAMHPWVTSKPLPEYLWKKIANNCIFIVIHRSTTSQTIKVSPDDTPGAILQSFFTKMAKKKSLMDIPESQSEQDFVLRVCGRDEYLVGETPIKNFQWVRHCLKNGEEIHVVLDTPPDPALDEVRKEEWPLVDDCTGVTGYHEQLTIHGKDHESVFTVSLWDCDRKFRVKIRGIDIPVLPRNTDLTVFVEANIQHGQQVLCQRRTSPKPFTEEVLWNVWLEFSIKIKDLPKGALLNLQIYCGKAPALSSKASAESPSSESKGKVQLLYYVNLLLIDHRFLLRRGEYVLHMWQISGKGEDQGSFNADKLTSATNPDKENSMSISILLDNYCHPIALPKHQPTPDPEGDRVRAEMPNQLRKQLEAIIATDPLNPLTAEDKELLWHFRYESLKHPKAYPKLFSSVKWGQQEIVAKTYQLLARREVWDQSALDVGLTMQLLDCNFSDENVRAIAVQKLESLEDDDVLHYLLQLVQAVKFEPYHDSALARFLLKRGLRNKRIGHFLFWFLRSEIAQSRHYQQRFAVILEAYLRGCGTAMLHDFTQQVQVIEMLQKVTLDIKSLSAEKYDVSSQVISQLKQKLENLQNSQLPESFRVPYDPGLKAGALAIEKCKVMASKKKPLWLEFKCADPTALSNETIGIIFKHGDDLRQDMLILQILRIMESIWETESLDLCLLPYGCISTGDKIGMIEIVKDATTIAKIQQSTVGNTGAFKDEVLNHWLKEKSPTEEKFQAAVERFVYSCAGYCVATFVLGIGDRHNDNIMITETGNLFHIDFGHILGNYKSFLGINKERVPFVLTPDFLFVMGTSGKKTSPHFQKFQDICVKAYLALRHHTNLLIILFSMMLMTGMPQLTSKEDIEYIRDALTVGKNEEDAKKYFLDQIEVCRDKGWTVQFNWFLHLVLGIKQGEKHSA

[13] = target: T1, Serine/threonine-protein kinase pim-1; details: 1 uM
Target sequence in this assay (P11309 whole entry, looked up): as the sequence (P11309 whole entry) above

[14] = target: T2, Serine/threonine-protein kinase pim-3; details: 1 uM
[15] = target: Cyclin-dependent kinase 2 (Homo sapiens) (UniProt P24941); assay: Inhibition of CDK2 at 1 uM
[16] = Dissociation constant, pKa of the compound; type: physicochemical

| Structure (SMILES) | IC50 [1] [µM] | IC50 [2] [µM] | IC50 [3] [µM] | IC50 [4] [µM] | solubility thermodynamic at 24 h [5] [µM] | IC50 [8] [µM] | IC50 [9] [µM] | microsomal CLint at 2 µM [10] [µL/min/mg] | inhibition [11] [%] | inhibition [12] | inhibition [13] [%] | inhibition [14] [%] | inhibition [15] | pKa [16] | GI50 [6] [µM] | IC50 [7] [µM] |
| --- | --- | --- | --- | --- | --- | --- | --- | --- | --- | --- | --- | --- | --- | --- | --- | --- |
| N[C@@H]1CCCN(c2ccccc2/C=C2\SC(=O)NC2=O)C1 | 0.009 | 0.009 | 0.014 | 0.24 | 782 (≈ 237 µg/mL) | 1.2 | 0.1 | – | – | – | – | – | – | – | 0.49 | > 30 |
| CN(C)C1CCN(c2ccccc2/C=C2\SC(=O)NC2=O)C1 (configuration not stated) | 0.061 | 0.11 | 0.5 | – | – | – | – | – | – | – | – | – | – | – | – | – |
| N[C@@H]1CCCN(c2c(Cl)cccc2/C=C2\SC(=O)NC2=O)C1 | < 0.003 | < 0.003 | 0.005 | 0.02 | – | 0.31 | 0.02 | 8.8 | – | – | – | – | – | – | 0.19 | – |
| COc1ccc(/C=C2\SC(=O)NC2=O)cc1OC | 0.95 | 0.28 | 2.5 | – | – | – | – | – | – | – | – | – | – | – | – | – |
| CCOc1cc(/C=C2\SC(=O)NC2=O)ccc1O | 0.16 | 0.39 | 0.16 | – | – | – | – | – | – | – | – | – | – | – | – | – |
| N[C@@H]1CCCN(c2c(Br)cccc2/C=C2\SC(=O)NC2=O)C1 | < 0.003 | < 0.003 | < 0.003 | 0.01 | > 720 | 0.15 | 0.01 | < 4.8 | > 50 | inactive | > 50 | > 50 | inactive | – | 0.1 | > 30 |
| N[C@H]1CCN(c2cc(Cl)ccc2/C=C2\SC(=O)NC2=O)C1 | 0.012 | 0.005 | 0.079 | – | – | – | – | – | – | – | – | – | – | – | – | – |
| O=C1NC(=O)/C(=C/c2ccccc2N2CCNCC2)S1 | 0.028 | 0.036 | 0.18 | – | – | – | – | – | – | – | – | – | – | – | – | – |
| O=C1NC(=O)/C(=C/c2cccc(Cl)c2N2CCNCC2)S1 | 0.018 | 0.026 | 0.082 | – | – | – | – | – | – | – | – | – | – | – | – | – |
| N[C@@H]1CCCN(c2c(/C=C3\SC(=O)NC3=O)cccc2-c2ccccc2)C1 | – | – | – | – | 263 (≈ 99.8 µg/mL) | – | – | < 4.8 | – | – | – | – | – | – | 0.02 | > 30 |

Second part, led by results:

| IC50 [1] [µM] | IC50 [2] [µM] | IC50 [3] [µM] | IC50 [4] [µM] | solubility thermodynamic at 24 h [5] [µM] | IC50 [8] [µM] | IC50 [9] [µM] | microsomal CLint at 2 µM [10] [µL/min/mg] | inhibition [11] [%] | inhibition [12] | inhibition [13] [%] | inhibition [14] [%] | inhibition [15] | pKa [16] | Structure (SMILES) | GI50 [6] [µM] | IC50 [7] [µM] |
| --- | --- | --- | --- | --- | --- | --- | --- | --- | --- | --- | --- | --- | --- | --- | --- | --- |
| < 0.003 | < 0.003 | < 0.004 | 0.006 | > 1000 | 0.16 | 0.01 | 12.1 | – | – | – | – | – | – | CCOc1cccc(/C=C2\SC(=O)NC2=O)c1N1CCC[C@@H](N)C1 | 0.08 | – |
| 0.036 | 0.042 | 0.25 | – | – | – | – | – | – | – | – | – | – | – | N[C@H]1CCN(c2ccccc2/C=C2\SC(=O)NC2=O)C1 | – | – |
| < 0.003 | < 0.003 | < 0.004 | < 0.003 | 337 (≈ 127 µg/mL) | 0.14 | 0.008 | 6.9 | – | – | – | – | – | – | CC(C)COc1cccc(/C=C2\SC(=O)NC2=O)c1N1CCC[C@@H](N)C1 | 0.08 | 23 |
| < 0.003 | < 0.003 | < 0.003 | < 0.003 | 378 (≈ 137 µg/mL) | 0.05 | < 0.004 | < 4.8 | – | – | – | – | – | – | CC(C)Oc1cccc(/C=C2\SC(=O)NC2=O)c1N1CCC[C@@H](N)C1 | 0.02 | – |
| < 0.006 | < 0.005 | 0.025 | – | – | – | – | – | – | – | – | – | – | – | N[C@H]1CCN(c2c(Cl)cccc2/C=C2\SC(=O)NC2=O)C1 | – | – |
| 0.89 | 0.73 | 4.7 | – | – | – | – | – | – | – | – | – | – | 6.14 | O=C1NC(=O)/C(=C/c2ccccc2)S1 | – | – |
| < 0.003 | < 0.003 | 0.005 | 0.01 | > 1000 | 0.32 | 0.02 | 3.9 | – | – | – | – | – | – | COc1cccc(/C=C2\SC(=O)NC2=O)c1N1CCC[C@@H](N)C1 | 0.21 | – |
| 1.5 | 3.2 | 15 | – | – | – | – | – | – | – | – | – | – | – | CC(C)(C)OC(=O)N[C@H]1CCN(c2ccccc2/C=C2\SC(=O)NC2=O)C1 | – | – |
| < 0.003 | 0.004 | 0.019 | 0.038 | 142 (≈ 54 µg/mL) | 0.69 | 0.004 | – | – | – | – | – | – | – | N[C@@H]1CCCN(c2c(/C=C3\SC(=O)NC3=O)cccc2-c2ccncc2)C1 | 2.28 | – |

Source: ChEMBL document CHEMBL2046384, “Discovery of novel benzylidene-1,3-thiazolidine-2,4-diones as potent and selective inhibitors of the PIM-1, PIM-2, and PIM-3 protein kinases” (Bioorg Med Chem Lett, 2012)
